One data set concerns CCRL2 KO mice. As to the kind of experiment: EAE induced by active immunization in CCRL2 KO mice. It counts as in vivo, mouse.
The conditions of data set [1]: mouse.
Data set [2] deals with Aldehyde dehydrogenase 1 family, member A1 (ALDH1A1). Further details: method as in PubChem, 2014b; ref 22. Conditions: Purified enzyme; ref PubChem, 2014b; cited from earlier work.
A further data set deals with Vitamin D receptor. Also on record: method as in PubChem, 2014a. The conditions noted are these: Purified protein (binding); ref PubChem, 2014a; cited from earlier work.
Another data set has as its system Thrombopoietin. Also on record: method as in PubChem, 2014a. The conditions noted are these: Cell-based; ref PubChem, 2014a; cited from earlier work.
Data set [3] concerns the target Bacillus subtilis Sfp phosphopantetheinyl transferase. Also on record: method as in PubChem, 2014a. Conditions: Purified enzyme; ref PubChem, 2014a; cited from earlier work.
For another data set, the system named is GPR154. Further details: method as in PubChem, 2014b; ref 24. Conditions: Cell-based (GPCR); neuropeptide S-induced signaling; ref PubChem, 2014b; cited from earlier work.
The next data set addresses Cholinesterase. Also on record: method as in Sastry et al., 1988a; ref 19. Conditions: Purified enzyme; ref Sastry et al., 1988a; cited from earlier work.
Data set [4] concerns Acetylcholine muscarinic M1 receptor. Also on record: method as in PubChem, 2014a; ref 25. The conditions noted are these: Cell-based (GPCR); Tested up to 35 µM; ref PubChem, 2014a; cited from earlier work.
For another data set, the target named is T1, huCMKLR1 (Homo sapiens, UniProt Q99788).
T1 sequence (Q99788 1-373): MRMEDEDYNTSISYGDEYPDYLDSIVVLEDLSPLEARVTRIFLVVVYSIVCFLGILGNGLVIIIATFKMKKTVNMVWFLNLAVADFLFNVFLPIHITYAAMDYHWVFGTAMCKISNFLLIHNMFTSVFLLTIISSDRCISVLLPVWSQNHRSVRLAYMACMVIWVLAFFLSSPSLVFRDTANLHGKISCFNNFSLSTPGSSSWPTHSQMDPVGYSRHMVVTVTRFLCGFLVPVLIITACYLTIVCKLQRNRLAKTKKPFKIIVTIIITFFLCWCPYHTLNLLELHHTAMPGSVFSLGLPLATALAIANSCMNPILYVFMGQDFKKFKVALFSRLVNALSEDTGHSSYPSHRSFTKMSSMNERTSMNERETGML
As to the kind of experiment: β-arrestin2 (β-ARR2) enzymatic complementation assay, CMKLR1/CHO cells. It counts as cell-based. Further details: host or cells: CHO. From the text:
The engagement of a chemoattractant receptor by its cognate ligand stimulates the recruitment of β-arrestin to the carboxyl-terminus of the receptor, an event that results in receptor internalization and termination of G protein-mediated signaling. […] To test this, we used an enzymatic complementation assay (the β-ARR2 assay), whereby the complementary fragments from the β-gal active site are fused to the carboxyl-terminus of CMKLR1 and β-arrestin2. The special association of these molecules leads to enzyme activity, which is detected by a chemiluminescent substrate.

The next data set addresses CXCR4 (Homo sapiens, UniProt P61073). As to the kind of experiment: Transwell chemotaxis of CXCR4+ U937 cells to CXCL12.
A further data set concerns the target CXCR7 (Homo sapiens, UniProt P25106). As to the kind of experiment: β-arrestin2 (β-ARR2) assay, CXCR7/CHO cells, CXCL12-stimulated. The conditions noted are these: 3 µM.
A further data set concerns the target T2, mCMKLR1 (Mus musculus, UniProt P97468).
T2 sequence (P97468 1-371): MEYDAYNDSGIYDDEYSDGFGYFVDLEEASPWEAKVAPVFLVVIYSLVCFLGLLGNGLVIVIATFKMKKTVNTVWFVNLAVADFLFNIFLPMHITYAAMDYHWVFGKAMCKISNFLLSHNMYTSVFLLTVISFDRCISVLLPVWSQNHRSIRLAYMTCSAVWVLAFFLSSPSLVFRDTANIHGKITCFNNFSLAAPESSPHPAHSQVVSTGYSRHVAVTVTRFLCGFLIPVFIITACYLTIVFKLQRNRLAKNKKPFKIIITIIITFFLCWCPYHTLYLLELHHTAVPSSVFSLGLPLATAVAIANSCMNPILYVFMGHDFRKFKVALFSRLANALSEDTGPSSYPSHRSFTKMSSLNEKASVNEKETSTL
As to the kind of experiment: Transwell chemotaxis of mCMKLR1/L1.2 transfectants to chemerin.

Another data set has as its system C57BL/6 mice. As to the kind of experiment: Recall proliferation and cytokine (ELISA) responses of LN and spleen cells from treated MOG35-55/CFA-immunized mice. The conditions noted are these: in vivo treatment over a 10-day period; 72 h restimulation. (In an ELISA, binding on a coated surface is turned into a signal by an enzyme label.)

The values that follow come from paper PMC4249827, “A Novel CMKLR1 Small Molecule Antagonist Suppresses CNS Autoimmune Inflammatory Disease” (PLoS ONE, 2014).

Molecules are shown by their SMILES. Like-named read-outs stand apart in the source and are kept apart here. Bounds are passed on as bounds.

Usually IC50 stands for the midpoint of a concentration-inhibition curve.

Sequence of CXCR4 (P61073 whole entry): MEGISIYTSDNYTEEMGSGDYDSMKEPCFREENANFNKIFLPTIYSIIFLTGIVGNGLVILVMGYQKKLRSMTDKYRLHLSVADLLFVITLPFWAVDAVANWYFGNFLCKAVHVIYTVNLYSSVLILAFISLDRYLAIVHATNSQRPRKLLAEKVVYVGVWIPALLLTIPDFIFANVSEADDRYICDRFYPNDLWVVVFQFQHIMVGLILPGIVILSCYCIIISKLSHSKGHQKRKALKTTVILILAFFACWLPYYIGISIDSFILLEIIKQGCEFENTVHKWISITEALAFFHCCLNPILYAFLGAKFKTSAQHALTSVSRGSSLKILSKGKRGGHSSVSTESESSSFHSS
Sequence of CXCR7 (P25106 whole entry, species assumed): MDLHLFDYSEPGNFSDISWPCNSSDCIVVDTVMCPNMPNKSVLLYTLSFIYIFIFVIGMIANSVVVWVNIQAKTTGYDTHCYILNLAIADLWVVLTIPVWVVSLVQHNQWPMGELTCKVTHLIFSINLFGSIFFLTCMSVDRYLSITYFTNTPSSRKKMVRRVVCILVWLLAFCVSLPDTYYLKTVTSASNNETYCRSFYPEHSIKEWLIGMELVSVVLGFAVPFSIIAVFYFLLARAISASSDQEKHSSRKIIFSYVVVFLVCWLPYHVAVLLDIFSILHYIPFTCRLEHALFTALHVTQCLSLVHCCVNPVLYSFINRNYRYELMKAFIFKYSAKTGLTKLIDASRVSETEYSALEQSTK

On to `C[N+](C)(C)CCC(=O)c1cccc2ccccc12.[I-]` [α-NETA, 2-(α-naphthoyl)ethyltrimethylammonium iodide], for which the “suppression of clinical signs beyond first appearance of disease in control CCRL2 KO mice” value with CCRL2 KO mice (10 mg/kg daily s.c.) was “completely and significantly suppressed clinical signs for an average of four days”. Moreover, the “treated mice that did not develop EAE by day 20” value in the data set with CCRL2 KO mice (CCRL2 KO mice, 10 mg/kg daily s.c.) is given as 40%. For the same compound, the “severity of clinical disease” value with CCRL2 KO mice (CCRL2 KO mice, days 8-15 (except for day 10)) is recorded as “significantly reduced”. Further, the “detection of parent compound after in vivo dosing” value in data set [1] (iv, 0.5 mg/kg) was “unable to detect any of the parent compound”; in data set [1] (sc, 10 mg/kg), “unable to detect any of the parent compound”. Further, the IC50 in data set [2] is 0.04 µM; at Vitamin D receptor, 2 µM; with Thrombopoietin, 2.5 µM; in [3], 18 µM; in the data set with GPR154, 32 µM; on Cholinesterase it was 84 µM. For the same compound, the concentration for half-maximal inhibition (IC50) against huCMKLR1 is 0.375 ± 0.042 µM; at huCMKLR1 (IC50 (µM), β-arrestin, huCMKLR1, mean±SEM, n = 3-14 independent experiments) it was 0.38 µM; against CXCR4 it was at least 10000 nM; at mCMKLR1, 5000 ± 400 nM. For the same compound, the “IC50 (µM), Acetylcholine muscarinic M1 receptor” value in data set [4] was “Inactive ^k”. Moreover, at CXCR4 (1, 3, and 10 µM), the “inhibition of migration of CXCR4+ cells to CXCL12” value is listed as “did not inhibit”. The “inhibition of CXCL12-triggered β-arrestin2 association with CXCR7” value on CXCR7 is on record as “moderately inhibited”. In addition, the “MOG35-55 recall proliferation and IFNγ and IL-17 production of LN and spleen cells” value in the data set with C57BL/6 mice is recorded as “comparable to vehicle-treated mice”.
